14 compounds from PubChem BioAssay (NCI) can be followed below.

Experiment in all cases: NCI-60 cell line screen, 48 h
Assay [1] has as its system SF-295 CNS.
Assay [2] concerns CAKI-1 renal.
The subject of assay [3] is KM12 colon.
In assay [4] the test system is UO-31 renal.
The test system of assay [5] is IGROV1 ovarian.
The subject of assay [6] is OVCAR-5 ovarian.
The subject of assay [7] is SK-MEL-2 melanoma.
Assay [8] has as its system HS 578T breast.

Several values for one entry are separate records, joined by “and”; a condition that tells them apart may be missing. Identical values can stand only once.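 Test compounds were applied to cells in 96-well plates for 48 hours at 5 doses. GI50 = concentration required for 50% inhibition of growth. At the TGI there is no net growth.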

For the compound `CN(CCCCCCCCNc1ccnc2ccccc12)Cc1ccc(-c2ccc(-c3ccc(C#N)cc3)s2)cc1`, the GI50 was 0.501 µM in assay [1]; 1.3 µM in assay [2]; 0.667 µM in assay [3]; 1.23 µM in assay [4]; 1.4 µM in assay [5]; 1.39 µM in assay [6]. Also, the GI50 is 1.85 µM in assay [7] and 1.75 µM in assay [8]. For the same compound, the TGI is 1.26 µM in assay [1]; 2.65 µM in assay [2]; 2.17 µM in assay [3]; 2.57 µM in assay [4]; 3.02 µM in assay [5]; 2.73 µM in assay [6]. The TGI was determined as 3.83 µM in assay [7] and 3.86 µM in assay [8].

On to `CSc1nc(SC)c2c(C)c(Br)[nH]c2n1`, for which the TGI in assay [1], in assay [2], in assay [3], in assay [4], in assay [5] and in assay [6] was more than 100 µM throughout. The TGI in assay [7] and in assay [8] was more than 100 µM each time.

For the compound `O=c1oc2ccc(I)cc2c(=O)n1-c1ccc(I)cc1F`, the GI50 in assay [1] is 1.77 µM; in assay [2], 0.308 µM; in assay [3], 2.2 µM; in assay [4], 0.268 µM; in assay [5] it was 0.406 µM; in assay [6] it was 3.93 µM. The GI50 was 0.391 µM in assay [7] and 0.324 µM in assay [8]. Further, the TGI in assay [1] was 3.54 µM; in assay [2], 2.53 µM; in assay [3], 5.23 µM; in assay [4] it was 2.41 µM; in assay [5], 20.8 µM; in assay [6], more than 100 µM. For the same compound, the TGI in assay [7] was 2.55 µM; in assay [8] it was 4.78 µM.

For the compound `CCc1nc(N)nc(N)c1-c1ccc(N(C)Cc2ccccc2)c([N+](=O)[O-])c1`, the TGI was 15.3 µM in assay [1]; 25.4 µM in assay [2]; 16.3 µM in assay [3]; 16 µM in assay [4]; 25.8 µM in assay [5]; 32.9 µM in assay [6]. The TGI was 20 µM in assay [7] and 72.7 µM in assay [8].

For the compound `CC[C@H](C)C(=O)O[C@H]1CCC=C2C=C[C@H](C)[C@H](CC[C@@H]3C[C@@H](O)CC(=O)O3)[C@H]21`, the GI50 is 1.66 µM in assay [1]; 2.6 µM in assay [2]; 5.29 µM in assay [4]; 5 µM in assay [5]; 14.4 µM in assay [6]; 1.77 µM in assay [7]. Besides, the GI50 in assay [8] was 4.56 µM. Besides, the TGI is 4.32 µM in assay [1]; 11.2 µM in assay [2]; more than 100 µM in assay [3]; more than 100 µM in assay [4]; more than 100 µM in assay [5]; more than 100 µM in assay [6]. The TGI in assay [7] is 11.7 µM; in assay [8], more than 100 µM.

As for `O=C(CS(=O)c1nc2ccccc2nc1-c1ccccc1)Nc1ccc(Cl)cc1` (stereo not drawn), the GI50 was 15.7 µM in assay [1]; 20.1 µM in assay [2]; 21.7 µM in assay [3]; 25 µM in assay [4]; 31.2 µM in assay [5]; 33.7 µM in assay [6]. In assay [7], the GI50 was 27.4 µM. The TGI in assay [1] is 48.7 µM; in assay [2], 57.5 µM; in assay [3], 55.2 µM; in assay [4], more than 100 µM; in assay [5], 99.5 µM; in assay [6], more than 100 µM. Further, the TGI amounted to 65.5 µM in assay [7] and 6.88 µM in assay [8].

Take `Cc1cc2oc(=O)cc(OC/C=C3/CCC(=O)O3)c2cc1C`: the GI50 in assay [1] was 13.7 µM; in assay [2] it was 3.59 µM; in assay [3] it was 3.31 µM; in assay [4], 1.49 µM; in assay [5] it was 3.33 µM; in assay [6], 8.7 µM. Besides, the values for the GI50 in assay [7] and in assay [8] were 3.41 µM and 4.76 µM, respectively. Moreover, the TGI in assay [1] was determined as 32 µM; in assay [2] it was 17.7 µM; in assay [3], 18 µM; in assay [4], 4.88 µM; in assay [5] it was 14.6 µM; in assay [6] it was 22.9 µM. Besides, the TGI came out at 16.1 µM in assay [7] and 43.7 µM in assay [8].

In the case of `COc1ccc(C2CC(c3ccc4ccccc4c3)=NN2c2nc(O)c(C3=c4cc(Cl)ccc4=NC3=O)s2)cc1` (stereo not drawn), the GI50 in assay [1] is 0.0197 µM and < 0.005 µM; in assay [2], 0.036 µM and < 0.005 µM; in assay [3], 0.0236 µM and < 0.005 µM; in assay [4] it was 0.0193 µM and < 0.005 µM; in assay [5] it was 0.0254 µM; in assay [6], 0.0263 µM and < 0.005 µM. Further, the GI50 was 0.0263 µM and < 0.005 µM in assay [7]; 0.0283 µM in assay [8]. For the same compound, the TGI in assay [1] was 0.0491 µM and < 0.005 µM; in assay [4] it was 0.0436 µM and < 0.005 µM; in assay [5] it was 0.0736 µM; in assay [8], 0.0973 µM.

In the case of `CCc1c2c(nc3ccc(OC(=O)OCc4ccc(B5OC(C)(C)C(C)(C)O5)cc4)cc13)-c1cc3c(c(=O)n1C2)COC(=O)[C@]3(O)CC`, the GI50 in assay [1] is less than 0.01 µM; in assay [2], less than 0.01 µM; in assay [3], 0.073 µM; in assay [4], 0.0189 µM; in assay [5], 0.1 µM; in assay [6], 0.114 µM. Besides, the GI50 in assay [7] is 0.326 µM; in assay [8] it was 0.547 µM. Also, the TGI in assay [1] worked out at 1.48 µM; in assay [2] it was 0.315 µM; in assay [3], 16.1 µM; in assay [4], 0.339 µM; in assay [5], 3.48 µM; in assay [6], 6.23 µM. The values for the TGI in assay [7] and in assay [8] were 8.57 µM and 19.8 µM, respectively.

For the compound `CCOP(=O)(OCC)C(NC(c1ccccc1)c1ccccc1)c1ccsc1` (stereo not drawn), the GI50 in assay [1] is 18.4 µM; in assay [2] it was 16 µM; in assay [3], 16.7 µM; in assay [4], 33.1 µM; in assay [5] it was 37.6 µM; in assay [6], 16.9 µM. For the same compound, the GI50 in assay [7] was 43.4 µM; in assay [8], 29.7 µM. Besides, the TGI in assay [1] is 36.9 µM; in assay [2] it was 33.2 µM; in assay [3], 37.5 µM; in assay [4], more than 100 µM; in assay [5] it was more than 100 µM; in assay [6], 32.6 µM. Also, the TGI in assay [7] was more than 100 µM; in assay [8], 66.3 µM.

On to `CN(C)C[C@@H]1CCn2cc(c3ccccc32)C2=C(C(=O)NC2=O)c2cn(c3ccccc23)CCO1`, for which the GI50 was 3.3 µM in assay [1]; 1.36 µM in assay [2]; 1.82 µM in assay [3]; 0.539 µM in assay [4]; 1.3 µM in assay [5]; 1.34 µM in assay [6]. The GI50 in assay [7] is 2 µM; in assay [8], 1.76 µM. Besides, the TGI is more than 10 µM in assay [1]; more than 10 µM in assay [2]; more than 10 µM in assay [3]; 3.23 µM in assay [4]; 8.49 µM in assay [5]; more than 10 µM in assay [6]. The TGI in assay [7] was more than 10 µM; in assay [8], 8.88 µM.

In the case of `CN(C)c1ccc2cc3c(cc2c1)Oc1ccccc1N3.[Cl][Zn][Cl]`, the GI50 in assay [1] is 18 µM; in assay [2] it was 2.91 µM; in assay [3] it was 13.2 µM; in assay [4] it was 1.44 µM; in assay [5], 12.8 µM; in assay [6], 1.96 µM. Also, the results for the GI50 in assay [7] and in assay [8] were 9.65 µM and 24.7 µM, respectively. Moreover, the TGI in assay [1] came to 39.7 µM; in assay [2], 10.3 µM; in assay [3], 29.1 µM; in assay [4], 3.3 µM; in assay [5], 33.8 µM; in assay [6], 6.35 µM. The values for the TGI in assay [7] and in assay [8] were 31.3 µM and more than 100 µM, respectively.

With `COc1ccc(Cl)cc1Nc1nc(C(F)(F)F)ccc1C(=O)N/N=C/c1ccccc1Cl`, the GI50 in assay [1] is 0.27 µM; in assay [2], 0.994 µM; in assay [3] it was 2.81 µM; in assay [4], 3.18 µM; in assay [5], 2.76 µM; in assay [6], 3.55 µM. Also, the GI50 was 3.45 µM in assay [7] and 3.2 µM in assay [8]. The TGI in assay [1] was 1.36 µM; in assay [2] it was 8.19 µM; in assay [3] it was more than 28 µM; in assay [4], more than 26.8 µM; in assay [5], more than 24.7 µM; in assay [6], 54 µM. Also, the results for the TGI in assay [7] and in assay [8] were more than 28.4 µM and 40.7 µM, respectively.

Take `O=C1NC(c2cccc3ccccc23)Nc2ccccc21` (stereo not drawn): the GI50 is 0.0592 µM in assay [1], 0.0282 µM in assay [2], 0.0362 µM in assay [4] and 0.0636 µM in assay [5]. The TGI is 0.894 µM in assay [1]; 1.82 µM in assay [2]; 5.91 µM and 10.4 µM in assay [3]; more than 100 µM in assay [4]; more than 100 µM in assay [5]; more than 65.3 µM in assay [6]. For the same compound, the TGI was 7.5 µM and > 20.2 µM in assay [7]; 92.2 µM in assay [8].
